Laboratory results: patent publication US9629834B2, “Medicinal composition for inhibiting formation and/or enlargement of cerebral aneurysm or shrinking same” (KYOTO UNIVERSITY, priority 2013, dated 2017)

What was measured:
cerebral aneurysm model = assay: Inhibitory effect on formation of cerebral aneurysm in cerebral aneurysm model (EvG staining, size of aneurysm); assay type: in vivo, SD rat; details: 5 mL/kg, forced oral, once a day, Day 0 to Day 26
Protocol: A rat model of cerebral aneurysm was prepared according to the method disclosed on the literature by Hashimoto et al. (Surgical Neurology 1978, Vol. 10, p. 3-8). Namely, 50 mg/kg of pentobarbital was administrated intraperitoneally to a 7-week-old male SD rat, and the left common carotid artery and the left renal artery were ligated by using 10-0 nylon thread under anesthesia (this is referred to as the surgery for inducing cerebral aneurysm). From the day after surgery (Day 1), the rat was reared with being fed a high-salt diet. During a rearing period, the rat was given free access to water. Forced oral administration of 0.03 mg/5 mL or 0.1 mg/5 mL of the suspension of Compound 1 to the cerebral aneurysm model was conducted once a day at a dose of 5 mL/kg from the day after surgery, i.e., 1 day after surgery (Day 1) to 27 days after surgery (Day 27). It should be noted that forced oral administration of the 0.5% MC solution (0 mg/5 mL of the suspension of Compound 1) to the cerebral aneurysm model was conducted once a day at a dose of 5 mL/kg. The group of these rats was defined as a vehicle group. 28 Days after surgery (Day 28), the right olfactory artery/anterior cerebral artery bifurcation containing cerebral aneurysm was extirpated and was fixed with 4% paraformaldehyde, and then the solution was replaced with a 30% sucrose solution, and thereafter, the extirpated bifurcation was frozen to prepare a specimen of a frozen section having a thickness of 5 μm, by similar procedures to the steps 1) and 2) of the method of Reference Example 2. This specimen was subjected to EvG staining and the formation of cerebral aneurysm was confirmed. The size of cerebral aneurysm was measured and evaluation was conducted. The maximum diameter (Maximum) represents the maximum distance between internal elastic lamina disruption sites observed by EvG staining, the height “Height” represents the maximum value of height defined as the length of the perpendicular line drawn from the line connecting the two ends of internal elastic lamina, and the mean diameter “Mean” represents the mean value of the maximum diameter and the height. This evaluation was conducted on all the rats (8 or 9 rats) of each of the groups, and the mean value of each of the groups was calculated. The administration of 0.1 mg/5 mL of a suspension of Compound 2 to the cerebral aneurysm model was started on the day of the surgery (Day 0) at a dose of 5 mL/kg, and forced oral administration was conducted once a day until 26 days after surgery (Day 26). The size of cerebral aneurysm was measured by using the protocol of Example 1. […] The size of cerebral aneurysm was measured by using the protocol of Example 1. […] The size of cerebral aneurysm was measured by using the protocol of Example 1.

[1] = test system: Human carotid artery endothelial cells; assay: Inhibitory action of S1P1 receptor antagonist on inhibitory effect of Compound 1 on permeability of endothelial cells; assay type: cell-based; details: antagonist 0.1 nM, 1 nM, 10 nM, or 100 nM with Compound 1 100 nM; FITC-dextran; FIG. 15
Protocol: Human carotid artery endothelial cells HCtAEC (Cell Applications) were seeded in the upper compartment of Transwell (diameter: 6.5 mm, pore size: 0.4 μm, collagen-Coated: Corning) so that the cell density was 1×10^5 cells/well, and the cells were cultured overnight in MesoEndo Growth Medium (Cell Applications) under a 5% CO2 atmosphere at 37° C. The medium was replaced with Endothelial Cell Serum-Free Defined Medium (Cell Applications), and the cells were further cultured overnight under the CO2 atmosphere at 37° C. Then, Compound 1 was added to the upper compartment and the lower compartment of Transwell so that the final concentration was 0 nM, 0.1 nM, 1 nM, 10 nM, or 100 nM, and the cells were cultured continuously. The well to which Compound 1 was not added was defined as a control. After culturing for 60 minutes, 250 μg/mL of fluorescein isothiocyanate (FITC)-dextran (2,000 kDa: Sigma-Aldrich) was added to the upper compartment of Transwell, and the amount of FITC-dextran which permeated into the lower compartment was determined by measuring the fluorescence intensity of the medium in the lower compartment after 5 minutes, 60 minutes, and 210 minutes. […]
After culturing for 60 minutes, the amount of FITC-dextran which permeated into the lower compartment was determined in a similar manner to Example 6.

Cl.O=C(O)C1CCN(CC2=Cc3ccc(OCc4ccc(OCC(F)(F)F)c(C(F)(F)F)c4)cc3OC2)CC1 [Compound 2, 1-[(7-{[4-(2,2,2-trifluoroethoxy)-3-(trifluoromethyl)benzyl]oxy}-2H-chromen-3-yl)methyl]piperidine-4-carboxylic acid hydrochloride]
formation of cerebral aneurysm (size) (cerebral aneurysm model; 0.1 mg/5 mL suspension, FIG. 11): inhibited the formation of cerebral aneurysm

Cl.NC(CO)(CO)CCc1ccc(Sc2cccc(OCc3ccccc3)c2)cc1Cl [Compound 3, 2-amino-2-[2-[4-[3-(benzyloxy)phenylsulfanyl]-2-chlorophenyl]ethyl]propane-1,3-diol hydrochloride]
formation of cerebral aneurysm (size) (cerebral aneurysm model; 0.01 mg/5 mL suspension, FIG. 12): inhibited the formation of cerebral aneurysm

CCc1cc(/C(C)=N/OCc2ccc(C3CCCCC3)c(C(F)(F)F)c2)ccc1CN1CC(C(=O)O)C1 [Compound 4, 1-[4-[N-[4-cyclohexyl-3-(trifluoromethyl)benzyloxy]-1(E)-iminoethyl]-2-ethylbenzyl]azetidine-3-carboxylic acid]
formation of cerebral aneurysm (size) (cerebral aneurysm model; 0.3 mg/5 mL suspension, FIG. 13): inhibited the formation of cerebral aneurysm

CCn1c(Oc2cccc(N3CCN(C)CC3)c2)nnc1[C@@H](C)NS(=O)(=O)c1ccc2c(Cl)cccc2c1 [Compound At, 5-chloro-N-[(1R)-1-{4-ethyl-5-[3-(4-methylpiperazin-1-yl)phenoxy]-4H-1,2,4-triazol-3-yl}ethyl]naphthalene-2-sulfonamide]
effect on the inhibitory effect of Compound 1 on permeability of endothelial cells [1]: inhibited the inhibitory effect of Compound 1 on permeability of endothelial cells in a concentration-dependent manner
